Measurements published in PubChem BioAssay AID248 (DTP/NCI, 2004).
Inconclusive results and toxic doses are left out.

Tested on: L1210 leukemia ip in BDF1 mice, survival T/C
Test: NCI In Vivo Anticancer Drug Screen. Data for tumor model L1210 Leukemia (intraperitoneal) in B6D2F1 (BDF1) mice
Details: endpoint: mean survival time, higher = longer survival
Outline: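 In this screen, tumor-bearing mice given compound are compared to those given vehicle, and their survival values are reported as a treated-to-control quotient.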

[1] = dose: 100.0 mg/kg/injection, schedule: Q04DX002 (ip), vehicle: Klucel (hydroxypropylcellulose) (HPC)
[2] = dose: 200.0 mg/kg/injection, schedule: Q04DX002 (ip), vehicle: Klucel (hydroxypropylcellulose) (HPC)
[3] = dose: 100.0 mg/kg/injection, schedule: Q01DX001 (ip), vehicle: carboxymethylcellulose (CMC)
[4] = dose: 200.0 mg/kg/injection, schedule: Q01DX001 (ip), vehicle: carboxymethylcellulose (CMC)
[5] = dose: 400.0 mg/kg/injection, schedule: Q01DX001 (ip), vehicle: carboxymethylcellulose (CMC)
[6] = dose: 100.0 mg/kg/injection, schedule: Q01DX001 (ip), vehicle: saline
[7] = dose: 200.0 mg/kg/injection, schedule: Q01DX001 (ip), vehicle: saline
[8] = dose: 400.0 mg/kg/injection, schedule: Q01DX001 (ip), vehicle: saline
[9] = dose: 50.0 mg/kg/injection, schedule: Q01DX001 (ip), vehicle: saline
[10] = dose: 100.0 mg/kg/injection, schedule: Q04DX003 (ip), vehicle: Klucel (hydroxypropylcellulose) (HPC)
[11] = dose: 200.0 mg/kg/injection, schedule: Q04DX003 (ip), vehicle: Klucel (hydroxypropylcellulose) (HPC)
[12] = dose: 400.0 mg/kg/injection, schedule: Q04DX003 (ip), vehicle: Klucel (hydroxypropylcellulose) (HPC)
[13] = dose: 100.0 mg/kg/injection, schedule: Q01DX009 (ip), vehicle: saline with Tween-80
[14] = dose: 200.0 mg/kg/injection, schedule: Q01DX009 (ip), vehicle: saline with Tween-80
[15] = dose: 400.0 mg/kg/injection, schedule: Q01DX009 (ip), vehicle: saline with Tween-80

For `CC[n+]1cccc(NC(=O)c2ccc(NC(=O)c3ccc(C(=O)Nc4ccc5c(ccc[n+]5CC)c4)cc3)cc2)c1`, the T/C (dose: 0.12 mg/kg/injection, schedule: Q01DX015 (oral), vehicle: alkali diluted with saline) was 90 % of control, the T/C (dose: 0.25 mg/kg/injection, schedule: Q01DX015 (oral), vehicle: alkali diluted with saline) was 90 % of control and the T/C (dose: 0.5 mg/kg/injection, schedule: Q01DX015 (oral), vehicle: alkali diluted with saline) was 101 % of control. The T/C (dose: 0.55 mg/kg/injection, schedule: Q01DX Z (ip), vehicle: carboxymethylcellulose (CMC)) was 107 % of control, the T/C (dose: 1.0 mg/kg/injection, schedule: Q01DX015 (oral), vehicle: alkali diluted with saline) was 112 % of control and the T/C (dose: 2.2 mg/kg/injection, schedule: Q01DX Z (ip), vehicle: carboxymethylcellulose (CMC)) was 181 % of control. For the same compound, the T/C (dose: 3.0 mg/kg/injection, schedule: Q01DX015 (ip), vehicle: alkali diluted with saline) was 164 % of control, the T/C (dose: 4.4 mg/kg/injection, schedule: Q01DX Z (ip), vehicle: carboxymethylcellulose (CMC)) was 165 % of control and the T/C (dose: 6.0 mg/kg/injection, schedule: Q01DX015 (ip), vehicle: alkali diluted with saline) was 120 % of control. For the same compound, the T/C (dose: 10.0 mg/kg/injection, schedule: Q01DX Z (ip), vehicle: carboxymethylcellulose (CMC)) was 113 % of control, the T/C (dose: 11.0 mg/kg/injection, schedule: Q01DX001 (ip), vehicle: alkali diluted with saline) was 118 % of control and the T/C (dose: 15.0 mg/kg/injection, schedule: Q01DX Z (ip), vehicle: carboxymethylcellulose (CMC)) was 110 % of control. For the same compound, the T/C (dose: 16.0 mg/kg/injection, schedule: Q01DX001 (ip), vehicle: alkali diluted with saline) was 150 % of control and the T/C (dose: 25.0 mg/kg/injection, schedule: Q01DX015 (ip), vehicle: alkali diluted with saline) was 102 % of control.

For `CCC(=O)c1cc2c(c3c1CCCC3)CCCC2`, the T/C (dose: 200.0 mg/kg/injection, schedule: Q01DX009 (ip), vehicle: other) was 90 % of control.

`NC1=NC(CCc2ccccc2)N(c2cccc(Cl)c2)C(N)=N1` (stereo unspecified) was tested, and the T/C (dose: 6.25 mg/kg/injection, schedule: Q01DX001 (ip), vehicle: saline) was 104 % of control, the T/C (dose: 12.5 mg/kg/injection, schedule: Q01DX001 (ip), vehicle: saline) was 98 % of control and the T/C (dose: 25.0 mg/kg/injection, schedule: Q01DX001 (ip), vehicle: saline) was 106 % of control.

`CC12CCC(C/C1=N\N=C(N)N)C2(C)C` (stereo unspecified) was tested, and the T/C (dose: 9.37 mg/kg/injection, schedule: Q01DX009 (ip), vehicle: saline) was 97 % of control, the T/C (dose: 18.75 mg/kg/injection, schedule: Q01DX009 (ip), vehicle: saline) was 96 % of control and the T/C (dose: 18.75 mg/kg/injection, schedule: Q04DX003 (ip), vehicle: saline) was 102 % of control. For the same compound, the T/C (dose: 37.5 mg/kg/injection, schedule: Q01DX009 (ip), vehicle: saline) was 102 % of control, the T/C (dose: 37.5 mg/kg/injection, schedule: Q04DX003 (ip), vehicle: saline) was 94 % of control and the T/C (dose: 75.0 mg/kg/injection, schedule: Q01DX001 (ip), vehicle: saline) was 105 % of control. For the same compound, the T/C (dose: 75.0 mg/kg/injection, schedule: Q04DX003 (ip), vehicle: saline) was 88 % of control.

In the case of `CC1OC(n2cnc3c(N)ncnc32)C(O)C1O` (stereo unspecified), the T/C (dose: 50.0 mg/kg/injection, schedule: Q01DX001 (sc), vehicle: carboxymethylcellulose (CMC)) is reported as 104 % of control, the T/C (dose: 100.0 mg/kg/injection, schedule: Q01DX001 (sc), vehicle: carboxymethylcellulose (CMC)) is reported as 90 % of control and the T/C (dose: 200.0 mg/kg/injection, schedule: Q01DX001 (sc), vehicle: carboxymethylcellulose (CMC)) is reported as 93 % of control. The T/C (dose: 400.0 mg/kg/injection, schedule: Q01DX001 (sc), vehicle: carboxymethylcellulose (CMC)) was 106 % of control.

`O=C(Nc1ccc(Cl)cc1Cl)P(=O)(O)c1ccccc1` was tested, and the T/C (dose: 100.0 mg/kg/injection, schedule: Q01DX009 (ip), vehicle: Klucel (hydroxypropylcellulose) (HPC)) was 92 % of control, the T/C [1] was 101 % of control and the T/C (dose: 200.0 mg/kg/injection, schedule: Q01DX009 (ip), vehicle: Klucel (hydroxypropylcellulose) (HPC)) was 103 % of control. The T/C [2] was 90 % of control and the T/C (dose: 400.0 mg/kg/injection, schedule: Q01DX009 (ip), vehicle: Klucel (hydroxypropylcellulose) (HPC)) was 92 % of control.

With `CCC(C)N1OC1c1ccccc1` (stereo unspecified) the T/C [3] was 106 % of control, the T/C [4] was 103 % of control and the T/C [5] was 101 % of control.

In the case of `CCCCN(CCCC)C(=O)OCC`, the T/C [6] is reported as 103 % of control, the T/C [7] is reported as 94 % of control and the T/C [8] is reported as 101 % of control.

With `COc1ccc2cc(C(C)=O)ccc2c1` the T/C [9] was 117 % of control, the T/C [6] was 105 % of control and the T/C [7] was 100 % of control. For the same compound, the T/C [8] was 110 % of control.

`OCC1OCOC2C(CO)OCOC12` (stereo unspecified) was tested, and the T/C (dose: 25.6 mg/kg/injection, schedule: Q04DX002 (ip), vehicle: saline with Tween-80) was 104 % of control, the T/C (dose: 64.0 mg/kg/injection, schedule: Q04DX002 (ip), vehicle: saline with Tween-80) was 101 % of control and the T/C (dose: 160.0 mg/kg/injection, schedule: Q04DX002 (ip), vehicle: saline with Tween-80) was 101 % of control. For the same compound, the T/C (dose: 400.0 mg/kg/injection, schedule: Q04DX002 (ip), vehicle: saline with Tween-80) was 96 % of control.

In the case of `CCCCCCCCCCCCSC(SCCCCCCCCCCCC)SCCCCCCCCCCCC`, the T/C (dose: 100.0 mg/kg/injection, schedule: Q01DX001 (ip), vehicle: other) is reported as 95 % of control, the T/C (dose: 200.0 mg/kg/injection, schedule: Q01DX001 (ip), vehicle: other) is reported as 106 % of control and the T/C (dose: 400.0 mg/kg/injection, schedule: Q01DX001 (ip), vehicle: other) is reported as 95 % of control.

In the case of `COc1cc(/C=N/NC(=O)N/N=C/c2cc(OC)c(OC)c(OC)c2)cc(OC)c1OC`, the T/C [10] is reported as 105 % of control, the T/C [11] is reported as 105 % of control and the T/C [12] is reported as 108 % of control.

With `c1ccc(N=C(c2ccccc2)c2ccccc2)cc1` the T/C [9] was 102 % of control, the T/C [6] was 98 % of control and the T/C [7] was 98 % of control. For the same compound, the T/C [8] was 102 % of control.

With `COc1ccc2c(c1)CCC1(C)CC(C)C(=O)C=C21` (stereo unspecified) the T/C [10] was 92 % of control, the T/C [11] was 91 % of control and the T/C [12] was 92 % of control.

`O=C(O)c1cc(S(=O)(=O)O)cc([N+](=O)[O-])c1O` was tested, and the T/C [1] was 96 % of control, the T/C [2] was 104 % of control and the T/C (dose: 400.0 mg/kg/injection, schedule: Q04DX002 (ip), vehicle: Klucel (hydroxypropylcellulose) (HPC)) was 96 % of control.

With `CCN1CCC(S(=O)(=O)CCS(=O)(=O)C2CCN(CC)C2)C1` (stereo unspecified) the T/C [3] was 95 % of control, the T/C [4] was 94 % of control and the T/C [5] was 94 % of control.

`O=NN(CCF)C(=O)Nc1c[nH]c(=O)[nH]c1=O` was tested, and the T/C (dose: 20.0 mg/kg/injection, schedule: Q01DX001 (ip), vehicle: carboxymethylcellulose (CMC)) was 178 % of control.

With `O=Cc1nccn1Cc1ccccc1` the T/C (dose: 25.0 mg/kg/injection, schedule: Q01DX009 (ip), vehicle: saline with Tween-80) was 93 % of control, the T/C (dose: 50.0 mg/kg/injection, schedule: Q01DX009 (ip), vehicle: saline with Tween-80) was 98 % of control and the T/C [13] was 100 % of control.

With `CCOC(=O)C1CC(=O)c2cc(OC)c(OC)cc2C1c1ccc(OC)c(OC)c1` (stereo unspecified) the T/C [3] was 98 % of control and the T/C [4] was 89 % of control.

With `COC(=O)C1=CC2c3ccccc3C1c1ccccc12` the T/C [13] was 89 % of control, the T/C [14] was 105 % of control and the T/C [15] was 98 % of control.

For `COc1cc(/C=C2/SC(=S)NC2=O)cc(OC)c1OC`, the T/C [13] was 96 % of control, the T/C (dose: 100.0 mg/kg/injection, schedule: Q04DX003 (ip), vehicle: saline with Tween-80) was 100 % of control and the T/C [14] was 92 % of control. The T/C (dose: 200.0 mg/kg/injection, schedule: Q04DX003 (ip), vehicle: saline with Tween-80) was 100 % of control, the T/C [15] was 97 % of control and the T/C (dose: 400.0 mg/kg/injection, schedule: Q04DX003 (ip), vehicle: saline with Tween-80) was 117 % of control.

With `CCc1c(C)c2n(c1C)C(=O)C=C2N(CC)CC` the T/C [6] was 106 % of control, the T/C [7] was 102 % of control and the T/C [8] was 96 % of control.

For `O=S(O)OS(=O)O`, the T/C (dose: 100.0 mg/kg/injection, schedule: Q01DX009 (ip), vehicle: saline) was 93 % of control, the T/C (dose: 100.0 mg/kg/injection, schedule: Q04DX003 (ip), vehicle: saline) was 100 % of control and the T/C (dose: 200.0 mg/kg/injection, schedule: Q01DX009 (ip), vehicle: saline) was 90 % of control. The T/C (dose: 200.0 mg/kg/injection, schedule: Q04DX003 (ip), vehicle: saline) was 104 % of control, the T/C (dose: 400.0 mg/kg/injection, schedule: Q01DX009 (ip), vehicle: saline) was 86 % of control and the T/C (dose: 400.0 mg/kg/injection, schedule: Q04DX003 (ip), vehicle: saline) was 102 % of control.
